Data published in PMC12649225, “Machine Learning-Identified Potent Antimicrobial Peptides Against Multidrug-Resistant Bacteria and Skin Infections” (Antibiotics, 2025).
≈ marks a conversion by molar mass, not a printed value. Where two headings read alike, the source gives them in different places. No end group written: not given here.

Key:
A. baumannii RUH875 [1] = type: cell-based
Protocol: (§1) The bacterial strains used in this study included S. aureus JAR060131 [54] and the MDR ESKAPE pathogens Enterococcus faecium LUH15122, S. aureus LUH14616, Klebsiella pneumoniae LUH15104, A. baumannii RUH875 [55], Pseudomonas aeruginosa LUH15103, Enterobacter cloacae LUH15114, and the colistin-resistant Escherichia coli LUH15117. Before each experiment, bacteria from frozen stocks were cultured at 37 °C for 18–24 h on sheep blood agar plates (BioMérieux, Marcy-l’Étoile, France). All strains were then cultured from colonies either in tryptic soy broth (TSB; Oxoid, Basingstoke, UK) for A. baumannii, S. aureus, and E. faecium, or in brain heart infusion broth (BHI; Oxoid) for K. pneumoniae, P. aeruginosa, E. cloacae, and E. coli at 37 °C with shaking at 120 rpm for 18–24 h. Subsequently, bacteria were cultured to mid-logarithmic phase in the media described above at 37 °C with shaking at 120 rpm for 3 h. Bacteria were then washed twice with PBS and diluted to the required inoculum suspension concentration in Roswell Park Memorial Institute (RPMI)-1640 medium containing 20 mM HEPES and L-glutamine but without sodium bicarbonate (Sigma-Aldrich; hereafter referred to as RPMI), based on optical density at 620 nm. RPMI was selected because it supports bacterial growth without impairing AMP activity.
(§2) Bactericidal activity was assessed as described by de Breij et al.. Briefly, mid-logarithmic phase bacterial cultures were diluted to a final concentration of 1 × 10^7 colony-forming units (CFU)/mL in RPMI. Then, 10 µL was added to a final volume of 100 µL in RPMI (final concentration: 1 × 10^6 CFU/mL). Cultures were exposed to peptides either in RPMI or RPMI supplemented with 50% (v/v) human plasma (hereafter referred to as 50% plasma), obtained from four healthy volunteers after informed consent, frozen after collection, and pooled (Sanquin, Amsterdam, The Netherlands). Assays were performed in duplicate using round-bottom polypropylene microtiter plates (Costar, Arlington, VA, USA) and repeated three times. In the initial screening phase (Table 1, Table 2 and Table S1), peptide solutions of 1, 10, and 100 μM (final concentration) were tested against A. baumannii RUH875 and S. aureus JAR060131 in RPMI and in 50% plasma. After this selection process, two lead candidates, their RI variants, and reference peptides were tested with a final concentration range of 0.12 to 120 µM (two-fold dilutions) in RPMI and in 50% plasma (Table 3). The peptides were also tested against ESKAPE pathogens, with Synthetic Antimicrobial and Antibiofilm Peptide (SAAP)-148 as a reference peptide (Table 4).RPMI or 50% plasma served as no-treatment controls. After 2 and 18 h of incubation at 37 °C with shaking at 120 rpm in a humidified environment, the numbers of viable bacteria were quantified. Bactericidal activity was expressed as the lethal concentration 99.9% (LC99.9), defined as the lowest peptide concentration that killed ≥99.9% of bacteria within 2 h (LC99.9_2h) or 18 h (LC99.9_18h) compared to the initial inoculum.

S. aureus JAR060131 [2] = type: cell-based; settings: for LC99.9 S. aureus JAR060131 50% Plasma 2 h / LC99.9 S. aureus JAR060131 RPMI 2 h: JAR060131, 2 h
Protocol: as §1, §2

[3] = system: S. aureus JAR060131 biofilm; test: Biofilm killing; type: cell-based, Staphylococcus aureus; settings: for S. aureus biofilm killing, 24 h treatment (in words): up to 120 µM; for S. aureus biofilm killing, 24 h treatment (in words) / Concentration giving ≥3-log reduction of S. aureus biofilm CFU within 24 h: 24 h treatment; for Concentration giving ≥3-log reduction of S. aureus biofilm CFU within 24 h: >3 log for BP2 and pexiganan
Protocol: (§3) Mid-logarithmic phase cultures of A. baumannii RUH875 or S. aureus JAR060131 were diluted to 1 × 10^8 CFU/mL in RPMI supplemented with 1% glucose. A total of 100 μL of each suspension was added to flat-bottom polystyrene 96-well microplates (Costar) and incubated under static conditions at 37 °C in a humidified atmosphere for 24 h to allow biofilm formation. After 24 h, planktonic bacteria were removed, and wells were carefully washed with 100 μL PBS [60]. […] Control samples were exposed to 100 μL of PBS only.
(§4) Biofilms were treated at 37 °C for either 2 or 24 h. […] Plates were sealed and sonicated for 5 min (Elmasonic, Singen, Germany; 45 kHz) at room temperature to dislodge adherent bacteria. […] Quantitative cultures were performed by plating serial 10-fold dilutions on sheep blood agar, and results were expressed as log10 CFU per well. The lower limit of detection was three CFU. Each condition was tested in six replicates.

[4] = system: BJ human skin fibroblast cells; test: WST-1 metabolic activity assay (cell viability); settings: lowest concentration causing <70% metabolic activity (WST-1); BJ fibroblasts; 24 h; DMEM with 2% FBS; 0.05-60 µM
Protocol: (§5) BJ human skin fibroblast cells (ATCC CRL-2522; RRID: CVCL_3653; LGC Standards, Germany (September 2023)) were cultured in Dulbecco’s Modified Eagle Medium (DMEM; Gibco, Waltham, MA, USA) supplemented with 10% (v/v) foetal bovine serum (FBS; Sigma-Aldrich) and 1% (v/v) penicillin/streptomycin (pen/strep; Gibco). Cell suspensions (5 × 10^5 cells/mL) were seeded into 96-well plates (100 μL/well; Thermo Scientific, Waltham, MA, USA) and allowed to adhere for 24 h. Monolayers were then exposed to two-fold serial dilutions of GDST peptides, their RI variants, and reference peptides (final concentrations: 0.05 to 60 µM) in fresh DMEM with 2% (v/v) FBS for 24 h at 37 °C in a humidified atmosphere with 5% CO2.
(§6) Cell viability and membrane integrity were assessed using the water-soluble tetrazolium salt (WST-1; Roche, Basel, Switzerland) assay and the lactate dehydrogenase (LDH; Abcam, Cambridge, UK) assay, respectively, according to manufacturer instructions. Results were expressed as percentages of metabolic activity and LDH leakage relative to untreated control cells and the positive lysis control, respectively. The cytotoxic concentration was defined as the lowest peptide concentration causing <70% metabolic activity and >30% LDH leakage. All experiments were performed in triplicate.

[5] = system: BJ human skin fibroblast cells; test: LDH leakage assay (membrane integrity); settings: lowest concentration causing >30% LDH leakage; BJ fibroblasts; 24 h; DMEM with 2% FBS; 0.05-60 µM
Protocol: as §5, §6

[6] = system: A. baumannii RUH875 biofilm; test: Biofilm killing; type: cell-based, Acinetobacter baumannii; settings: for Concentration achieving significant biofilm killing of A. baumannii: at any treatment time (2 h, 24 h), tested up to 120 µM; for A. baumannii biofilm killing, 24 h treatment (in words): up to 120 µM
Protocol: as §3, §4

A. baumannii RUH875 [7] = test: microbe, parasite or virus in culture; type: cell-based, Acinetobacter baumannii; settings: for MIC: Acinetobacter baumannii
Protocol: (§7) The potential for resistance development to GDST-038, GDST-045, and their RI variants was assessed as described by Habets and Brockhurst. Resistance development to the antibiotics rifampicin and ciprofloxacin (both from Sigma-Aldrich) was evaluated for comparison. Briefly, 10 μL of a mid-logarithmic phase culture of A. baumannii RUH875 or S. aureus JAR060131 was added to 90 μL of peptide (final concentrations: 0.23 to 120 μM) or antibiotic (final concentrations: 0.03 to 256 μg/mL) solution in RPMI, in 96-well polypropylene round-bottom plates (Costar). All incubations were performed in quadruplicate. Plates were sealed with breathable seals (Greiner) and incubated at 37 °C with shaking at 120 rpm in a humidified environment for 18 h (S. aureus) or 48 h (A. baumannii).
(§8) The minimum inhibitory concentration (MIC), defined as the lowest concentration that inhibited visible bacterial growth, was then determined. Subsequently, 2 μL from the 0.5-fold MIC condition was transferred to fresh medium containing a concentration series ranging from 0.5- to 8-fold the new MIC. This procedure was repeated over 22 consecutive passages to monitor resistance development.

S. aureus JAR060131 [8] = test: microbe, parasite or virus in culture; type: cell-based, Staphylococcus aureus; settings: Staphylococcus aureus
Protocol: as §7, §8

[9] = RPMI, 18 h, median of three independent experiments

Row | Compound | S. aureus biofilm killing, 24 h treatment (in words) [3] | Cytotoxicity Metabolic Activity <70% [4] [µM] | Cytotoxicity LDH Leakage >30% [5] [µM] | Concentration achieving significant biofilm killing of A. baumannii [6] [µM] | LC99.9 A. baumannii RUH875 50% Plasma 2 h (A. baumannii RUH875 [1]; RUH875, 2 h) [µM] | LC99.9 A. baumannii RUH875 RPMI 18 h (A. baumannii RUH875 [1]; RUH875, 18 h) [µM] | LC99.9 S. aureus JAR060131 50% Plasma 2 h (S. aureus JAR060131 [2]) [µM] | LC99.9 S. aureus JAR060131 RPMI 2 h (S. aureus JAR060131 [2]) [µM] | LC99.9 S. aureus JAR060131 RPMI 18 h (S. aureus JAR060131 [2]; JAR060131, 18 h) [µM] | Concentration giving ≥3-log reduction of S. aureus biofilm CFU within 24 h [3] [µM] | A. baumannii biofilm killing, 24 h treatment (in words) [6] | further results
1 | CC[C@H](C)[C@H](NC(=O)[C@H](CCCCN)NC(=O)[C@H](CCC(=O)O)NC(=O)[C@H](CCCCN)NC(=O)[C@H](CO)NC(=O)[C@H](CCCCN)NC(=O)[C@H](CCCNC(=N)N)NC(=O)[C@H](Cc1ccccc1)NC(=O)[C@H](Cc1ccccc1)NC(=O)[C@H](CC(=O)O)NC(=O)CNC(=O)[C@H](CC(C)C)NC(=O)[C@@H](N)CC(C)C)C(=O)NCC(=O)N[C@@H](CCCCN)C(=O)N[C@@H](CCC(=O)O)C(=O)N[C@@H](Cc1ccccc1)C(=O)N[C@@H](CCCCN)C(=O)N[C@@H](CCCNC(=N)N)C(=O)N[C@H](C(=O)N[C@H](C(=O)N[C@@H](CCC(N)=O)C(=O)N[C@@H](CCCNC(=N)N)C(=O)N[C@H](C(=O)N[C@@H](CCCCN)C(=O)N[C@@H](CC(=O)O)C(=O)N[C@@H](Cc1ccccc1)C(=O)N[C@@H](CC(C)C)C(=O)N[C@@H](CCCNC(=N)N)C(=O)N[C@@H](CC(N)=O)C(=O)N[C@@H](CC(C)C)C(=O)N[C@H](C(=O)N1CCC[C@H]1C(=O)N[C@@H](CCCNC(=N)N)C(=O)N[C@H](C(=O)N[C@@H](CCC(=O)O)C(=O)N[C@@H](CO)C(=O)O)[C@@H](C)O)C(C)C)[C@@H](C)CC)C(C)C)[C@@H](C)CC [LL-37, reference compound] | did not exhibit significant biofilm-killing effects | 15 | 7.5 | > 120 |  |  |  |  |  |  |  | LC99.9 A. baumannii RUH875 50% Plasma 2 h (A. baumannii RUH875 [1]; 50% plasma, 2 h, median of three independent experiments): 60 µM; LC99.9 A. baumannii RUH875 50% Plasma 18 h (A. baumannii RUH875 [1]; 50% plasma, 18 h, median of three independent experiments): 60 µM; LC99.9 A. baumannii RUH875 RPMI 2 h (A. baumannii RUH875 [1]; RPMI, 2 h, two-fold dilutions 0.12-120 µM, median of three independent experiments): 1.88 µM; LC99.9 A. baumannii RUH875 RPMI 18 h (A. baumannii RUH875 [1]; [9]): 1.88 µM; LC99.9 S. aureus JAR060131 RPMI 18 h (S. aureus JAR060131 [2]; [9]): > 120 µM
2 | O=C(O)c1cn(C2CC2)c2cc(N3CCNCC3)c(F)cc2c1=O [ciprofloxacin, reference compound] |  |  |  |  |  |  |  |  |  |  |  | MIC (A. baumannii RUH875 [7]; RUH875, read-out: MIC A. baumannii after 22 passages): 64 µg/mL (≈ 193 µM); MIC (A. baumannii RUH875 [7]; RUH875, read-out: MIC A. baumannii before passaging): 0.5 µg/mL (≈ 1.51 µM); MIC increase in A. baumannii after 22 passages (A. baumannii RUH875 [7]; relative to first passage): 128 fold
3 | CO[C@H]1/C=C/O[C@@]2(C)Oc3c(C)c(O)c4c(O)c(c(/C=N/N5CCN(C)CC5)c(O)c4c3C2=O)NC(=O)/C(C)=C\C=C\[C@H](C)[C@H](O)[C@@H](C)[C@@H](O)[C@@H](C)[C@H](OC(C)=O)[C@@H]1C [rifampicin, reference compound] |  |  |  |  |  |  |  |  |  |  |  | MIC (S. aureus JAR060131 [8]; JAR060131, read-out: MIC S. aureus after 22 passages): 4100 µg/mL (≈ 4980 µM); MIC (S. aureus JAR060131 [8]; JAR060131, read-out: MIC S. aureus before passaging): 0.25 µg/mL (≈ 0.304 µM)
4 | GIGKFLKKAKKFGKAFVKILKK-NH2 (C-terminus assumed) [Pexiganan, reference compound] |  |  |  |  | 0.23 | 0.47 | 7.50 | 0.47 | 0.23 | ≥ 30 | not sustained after 24 h | Concentration killing ≥3 log CFU of A. baumannii biofilm within 2 h ([6]; 24 h biofilm, 2 h treatment in PBS, 1.88-120 μM, vs untreated biofilm): ≥ 30 µM
5 | GKWKLFKKAFKKFLKILAC [BP2, reference compound] |  | 0.47 | 1.88 |  |  |  |  |  |  | ≥ 30 | complete eradication | Concentration giving complete eradication of S. aureus biofilm within 24 h ([3]; 24 h biofilm, 24 h treatment in PBS): ≥ 60 µM
6 | LRAMCIKWWSGKHPK [TC84, reference compound] | did not exhibit significant biofilm-killing effects |  |  | > 120 | 3.75 | 3.75 | 7.5 | 7.5 | 7.5 |  |  | 
